In US20250186401A1, “COMBINATORIAL ACTIVATION OF GABA(B) AND A2 ADRENERGIC RECEPTORS PROVIDES RELIEF FROM STRESS INDUCED DEPRESSION” (University of Florida Research Foundation, Incorporated, priority 2022, published 2025) one finds TST immobility time data, which are given here for one compound.

This assay deals with mice subjected to UCMS. Description: TST in unpredictable chronic mild stress (UCMS) model. The assay is classed as in vivo. The following applies: UCMS mice (4 weeks); injection day 29, TST 30 min after; vs vehicle; FIG. 3B. How it is done: TST was performed 30 min after injection time. To perform the TST, the tails of the mice were wrapped with tape that covered approximately 4/5 of the tail length and then fixed upside down on a hook. The immobility time of each mouse was recorded and tracked over a 6 min period. The Porsolt FST was conducted using vertical clear glass cylinder (10 cm in diameter, 25 cm in height) filled with water (25° C.). The mice spent 6 min in the water and immobility was scored from 2 to 6 min. A mouse was regarded as immobile when floating motionless or making only those movements necessary to keep its head above the water.
This study investigated the effects of ClonBac in a mouse model of unpredictable chronic mild stress (0). For the UCMS paradigm, mice were housed in individual cages and were subjected to 4 weeks of stressors, with two stressors applied within a 24 hr period. Stressors were applied pseudo-randomly and included: intermittent bell (10 db, 1/10 s), continuous white noise for 4 h, rat odor, 45° cage tilt for 4 h, 30 minute cage shaking, soiled bedding for 8 hr, paired housing with a new partner for 2 h, overnight illumination, removal of nesting material for 12 hr, placement of a novel object in home cage for 3 h, and physical restraint for 1 h. Stressors continued to be applied during the behavioral testing phase. […]

As to `NCC(CC(=O)O)c1ccc(Cl)cc1` (stereo not drawn) [baclofen, β-(4-chlorophenyl)-γ-aminobutyric acid], the TST immobility time result is “significantly attenuated immobility TST time”.
